# Test results reported in patent publication US20010042520A1, “Method for producing model animals for itching induced by disruption of cutaneous barrier function” (priority 2000, published 2001).
# Tests used:
# Assay type in all cases: in vivo, male ICR mice
# [1] = tested on: scratching action induced by the disruption of the cutaneous barrier function of mice; assay: Scratching action of mice with disrupted cutaneous barrier function (acetone/diethylether mixture and distilled water, twice daily for 5 days); conditions: for number of the scratching action based on that of the control group: 120 minutes recording, control average = 100%, average ± standard error, 8 mice; for number of the scratching action bouts per 120 minutes: 10% aqueous solution, control group 126.5±20.8, significant
# Description: (§1) A rostral part (4 cm^2, i.e. 2 cm×2 cm) of the back skin in each of 10 male ICR mice was shaved. Four days after the shaving, the following test was started: The skin was covered with a 2 cm×2 cm absorbent cotton impregnated with a mixture of acetone and diethylether (1:1) for 15 seconds. The skin was wiped to remove superfluous solvent, then covered with an absorbent cotton impregnated with distilled water for 30 seconds, and wiped in the same manner as that described above. This treatment for disrupting the cutaneous barrier function of the skin was conducted twice in daily at intervals of at least 8 hours for 5 days. In a control group, only the shaving was conducted.
# On the next day after the completion of the 5 days treatment for disrupting the skin barrier function, each mouse was placed in each section of an acrylic acid resin cage (26×18×33 cm) divided into four sections (each section: 13×9×33 cm). After the mice was acclimatized to the cage in unmanned environment for 60 minutes, the action of each mouse was recorded for 120 minutes with a 8 mm video camera placed above the cage in such a manner that the 4 sections are in one scene. The scratching action was observed by playing back the video tape. The number of the scratching action by which the tip of a toe of a hind limb of the mouse touched the shaved part of the skin in 120 minutes was counted by the visual observation. One scratching action was a series of action beginning when the mouse raised its hind limb for starting the scratching and ending when the animal lowers its hind limb.
# The effect of Terfenadine, which is a histamine H1 receptor antagonist, and that of Naloxone, which is an opioid antagonist, for relieving the itching were determined with the same test materials as those in Example 1. The barrier function-disrupting treatment was conducted in the same manner as that of Example 1. On the next day after the completion of the 5 days barrier function disrupting treatment, the scratching action of mice was recorded for 120 minutes in the same manner as that of Example 1. The observation of the behavior of the mice and the counting of the number of times of the scratching action were conducted in the same manner as that of Example 1. 10 mg/kg of Terfenadine which is the histamine H1 receptor antagonist, was perorally administered at 30 minutes before the starting to record the scratching action, or 1 mg/kg of Naloxone, which is an opioid receptor antagonist, was subcutaneously injected at 15 minutes before the starting to record the scratching action. […]
# (§2) The effect of glycerol (humectant) on the skin manifestations and itching induced by the barrier disruption treatment of the present invention was determined by using the test animals similar to those used in Example 1. […] The skin manifestations were examined by the visual observation and the determination of hydration of the stratum corneum based on the relative electrostatic capacitance determined with Corneometer CM 825 (Courage+Khazaka Electronics, Cologne, Germany). Hydration of the stratum corneum was determined before starting the first barrier disrupting treatment every day and on the next day after the completion of the five days barrier disruption treatment. As for the scratching action, the scratching action of each mouse was filmed and recorded for 120 minutes in the same manner as that in Example 1 on next day after the completion of the five days barrier disruption treatment. […]
# [2] = tested on: hydration of the stratum corneum; assay: Hydration of the stratum corneum by relative electrostatic capacitance (Corneometer CM 825) in barrier-disrupted mice
# Description: as §1
# as §2, with “treatment.” for “treatment. As for the scratching action, the scratching action of each mouse was filmed and recorded for 120 minutes in the same manner as that in Example 1 on next day after the completion of the five days barrier disruption treatment.”
# [3] = tested on: formation of scales and wrinkles induced by the cutaneous barrier disruption; assay: Visual observation of skin manifestations (scales and wrinkles) in barrier-disrupted mice
# Description: as §1
# as §2, with “treatment.” for “treatment. As for the scratching action, the scratching action of each mouse was filmed and recorded for 120 minutes in the same manner as that in Example 1 on next day after the completion of the five days barrier disruption treatment.”
# [4] = 10 mg/kg perorally 30 minutes before recording
smiles,measurement,setting,value
C=CCN1CC[C@]23c4c5ccc(O)c4O[C@H]2C(=O)CC[C@@]3(O)[C@H]1C5 [Naloxone],number of the scratching action based on that of the control group,"[1]; 1 mg/kg subcutaneously 15 minutes before recording, significant vs control (5%)",42.5±13.1%
CC(C)(C)c1ccc(C(O)CCCN2CCC(C(O)(c3ccccc3)c3ccccc3)CC2)cc1 (stereo not drawn) [Terfenadine],suppressing effect on the scratching action,[1]; [4],no suppressing effect was recognized
same,number of the scratching action based on that of the control group,[1]; [4],124.2±49.3%
OCC(O)CO [glycerol],number of the scratching action bouts per 120 minutes,"[1]; 50 μl applied for 5 days, one hour after each barrier disruption treatment",42.5±10.0 per 120 minutes
same,number of the scratching action bouts per 120 minutes,[1]; 50 μl applied for one day (twice on the fifth day),76.5±14.6 per 120 minutes
same,hydration of the stratum corneum (relative electrostatic capacitance),"[2]; 10% aqueous solution applied for 5 days, next day after the 5 days barrier disrupting treatment, 40.0±1.2 before start, control 15.5±2.1",44.7±3.0
same,hydration of the stratum corneum (relative electrostatic capacitance),"[2]; 10% aqueous solution applied for one day, recovered from 20.5±1.3 after 4 days of treatment, 43.5±1.3 before start",41.3±2.6
same,formation of scales and wrinkles induced by the cutaneous barrier disruption,[3]; 10% aqueous solution applied for 5 days,completely inhibited
same,scales and wrinkle formation,[3]; 10% aqueous solution applied for one day,slight scales and wrinkle formation was observed
